# Laboratory results taken from US20230173008A1, “Composition for preventing hair loss or promoting hair growth comprising extract of above-ground part of carrots” (DAEBONG LS, LTD, priority 2020, published 2023).
# Where two headings read alike, the source gives them in different places.
# System: human dermal papilla cells
# Assay: cells
# Settings: Human dermal papilla cell, read-out: viability of human dermal papilla cells
# Description: Human follicle dermal papilla cells were purchased from PromoCell Co., and a human follicle dermal papilla cell growth medium containing fetal calf serum, bovine pituitary extract, basic fibroblast growth factor and insulin was used and cultured at 37° C. and 5% CO2 incubator.
# When the cultured human dermal papilla cells were dispensed in a 48 well plate at 1 × 10^4 cell/mL, and when the amount reached 80% or more, the extract of Example was treated at the concentrations shown in Table 2 below. The positive control group was treated with minoxidil at concentrations of 10 and 50 µM. After culturing the cells for 24, 48, and 72 hours, 200 µL of a 0.5 mg/mL solution of MTT diluted in the medium were added and cultured at 37° C. for 4 hours. After removing the solution, adding 200 µL of DMSO, and transferring 100 µL to a 96 well plate, absorbance was measured at 585 nm using a microplate reader. The average absorbance value for each sample group was obtained, and the cell viability was evaluated by comparing the average absorbance value with the absorbance value of the control group.
smiles,measurement,setting,value
"Nc1cc(N2CCCCC2)nc(N)[n+]1[O-] [Positive control group, minoxidil]",viability at 10 µM,24 h,104%
same,viability at 50 µM,24 h,107%
same,viability at 10 µM,48 h,107%
same,viability at 50 µM,48 h,116%
same,viability at 10 µM,72 h,115%
same,viability at 50 µM,72 h,125%
